# Reference: patent publication US20070238680A1, “Substance and process for preventing a genetic defect from being passed onto offspring” (priority 2006, published 2007)
# Key:
# [1] = tested on: genetically defected sperm versus healthy sperm; settings: potassium concentration in the extra-cellular fluid in the same range for all salts
# N/H sperm = assay: Sperm motility after about 24 hours in potassium-fortified sperm extender, computer-assisted semen analyzer; assay type: cell-based, horse
# Protocol: (§1) Three curves are plotted—one for motility of N/N sperm, one for N/H sperm and one for H/H sperm. […] In the tests, the sperm was kept in the particular sperm extender formula for about 24 hours. It was then diluted with standard sperm extender (with the low potassium concentration) at about an 8-to-1 ratio in a bullet tube, and its motility was measured using a computer-assisted semen analyzer. Note that the bold lines on the graph are linear extrapolations between the actual data points, which are shown in squares, triangles and diamonds, and are not accurate representations of the actual values between those data points.
# N/N sperm = assay: as above; assay type: cell-based, horse; settings: for motility of the N/N sperm sample: about 24 hours, then re-extended about 8-to-1
# Protocol: as §1
# H/H sperm = assay: as above; assay type: cell-based, horse
# Protocol: as §1
# As shown in the bottom-most curve in FIG. 6, as the potassium concentration increases, the motility of the H/H sperm sample drops to zero somewhere prior to 50 times the standard potassium concentration. Because all sperm in the H/H sample contain the defective sperm, we conclude that all defective sperm are immobilized at this concentration. More importantly, the sperm are permanently immobilized, as the test measured motility after the sperm sample was re-extended, restoring metabolic potassium levels.
# [2] = 70 times the normal potassium concentration, extrapolated from the curve
# [3] = 100 times the normal potassium concentration
Compound,suitable triggering event that impaired genetically defected sperm without also impairing healthy sperm [1],"motility percentage of N/H sperm cell sample (N/H sperm; 50 times the normal potassium concentration, about 24 hours, then re-extended about 8-to-1)",motility rate for N/H sperm cells (N/H sperm; [2]) [%],motility of the N/N sperm sample (N/N sperm; 50 times standard potassium concentration),motility rate for N/N sperm cells (N/N sperm; [2]) [%],motility of the N/N sperm sample (N/N sperm; [3]) [%],impairment of defective cells (H/H sperm; [3]),microscopic examination of the morphology of the sperm cells (H/H sperm; H/H sperm after high potassium exposure),"motility of the H/H sperm sample (H/H sperm; somewhere prior to 50 times the standard potassium concentration, about 24 hours, then re-extended about 8-to-1)"
[Cl-].[K+] [potassium chloride],yielded a suitable triggering event,about 53%,~38,about 85%,~60,29,completely and permanently impaired,tails were permanently curled around the cell body,zero
potassium phosphate [reference compound],failed to produce such a suitable outcome,–,–,–,–,–,–,–,–
